Results as given in publication PMC8854719, “Phase 1A/1B dose-escalation and -expansion study to evaluate the safety, pharmacokinetics, food effects and antitumor activity of pamiparib in advanced solid tumours” (British Journal of Cancer, 2021).
Where two headings read alike, the source gives them in different places.

Assay: Plasma pharmacokinetics of pamiparib (LC-MS/MS, non-compartmental)
Set-up: species or system human
Details: in vivo; for AUC(0-inf): AUC0-inf; for Vd/F: Vz/F
Experimental: Patients in the dose-escalation phase received a single oral dose of pamiparib on day 1 of cycle 1 to collect samples for single-dose PK assessment over 48 h, followed by continuous daily doses (BID and QD) starting on day 3 of cycle 1 as a 21-day period of repeated drug administration (days 3–23), and then continued every 21-day cycle thereafter until disease progression, toxicity, or patient withdrawal. Eight BID dose levels (2.5, 5, 10, 20, 40, 60, 80, 120 mg) were administered (Fig. 1). After completion of BID dose-escalation, alternative dosing regimens of 120 and 160 mg QD were selected for exploration based on the total daily dose equivalent to the RP2D (60 mg BID) and MTD (80 mg BID), respectively. The QD dosing regimen was added as an amendment to the protocol with the purpose of exploring the feasibility of a more convenient regimen. During the dose-expansion phase, patients received pamiparib 60 mg BID (RP2D from BID dose-escalation phase) continuously from day 1 of cycle 1.
Pamiparib in plasma was measured using a validated liquid chromatography-tandem–mass spectrometry assay with a lower limit of quantification of 1.0 ng/mL. The collection schedule for blood samples used to assess the PK profile is presented in the Supplemental Appendix. Summary PK parameters, including area under the concentration-time curve from time 0 to 9 h (AUC0-9) or infinity (AUC0-inf), maximal plasma concentration (Cmax) and time to maximal plasma concentration (Tmax), were estimated. The pharmacodynamic (PD) activity of pamiparib was explored through the evaluation of poly(ADP-ribose [PAR]) formation in peripheral blood mononuclear cells (PBMCs) after pamiparib administration. The schedule for blood sample collection (PK and PBMCs) and additional assessment information for PAR levels in PBMCs and pharmacodynamic activity is presented in the Supplemental Appendix. Antitumor activity was assessed by radiographic imaging (computed tomography or magnetic resonance imaging) during screening, within 28 days of first pamiparib dose, every 6 weeks in the first 12 months and every 9 weeks thereafter.
Descriptive statistics were used to summarise all study data (see Supplemental Appendix). Progression-free survival (PFS) and event-free rates were estimated using the Kaplan–Meier method along with the corresponding 95% CI. Pharmacokinetic parameters were derived using standard non-compartmental methods with Phoenix WinNonlin Version 6.4 or higher (Pharsight Corp., Mountain View, California).
The PK profile of pamiparib was assessed based on blood samples collected at predose and 0.5, 1, 2, 4, 6, 9, 24, and 48 hours postdose on Days 1-3 and then at predose and 0.5, 1, 2, 4, 6, and 9 hours postdose on Day 17 of Cycle 1 in Phase 1A. Sparse PK samples were collected in phase 1B Part A. The food effect on the PK of pamiparib was assessed based on blood samples collected at predose and 0.5, 1, 2, 4, 7, 24, and 48 hours postdose on Day 1 and Day 6 of Cycle 1 in phase 1B Part B.

[1] = human, 2.5 mg, Single Dose (Cycle 1 Day 1)
[2] = human, 5 mg, Single Dose (Cycle 1 Day 1)
[3] = human, 10 mg, Single Dose (Cycle 1 Day 1)
[4] = human, 20 mg, Single Dose (Cycle 1 Day 1)
[5] = human, 40 mg, Single Dose (Cycle 1 Day 1)
[6] = human, 60 mg, Single Dose (Cycle 1 Day 1)
[7] = human, 80 mg, Single Dose (Cycle 1 Day 1)
[8] = human, 120 mg, Single Dose (Cycle 1 Day 1)
[9] = human, 160 mg, Single Dose (Cycle 1 Day 1)

Structure (SMILES): C[C@]12CCCN1CC1=NNC(=O)c3cc(F)cc4[nH]c2c1c34 [pamiparib]
- Dose proportionality, AUC0-inf (h*ng/mL): Intercept (95% CI) (human): 5.97 (5.36-6.57)
- Dose proportionality, AUC0-inf (h*ng/mL): Slope (95% CI) (human): 1.04 (0.88-1.20)
- Dose proportionality, Cmax (ng/mL): Intercept (95% CI) (human): 3.66 (3.34-3.99)
- Dose proportionality, Cmax (ng/mL): Slope (95% CI) (human): 0.96 (0.87-1.04)
- Accumulation Ratio, AUC0-9 (human, 2.5 mg): 2.42
- Accumulation Ratio, Cmax (human, 2.5 mg): 2.44
- CL/F, Single Dose (Cycle 1 Day 1) (human, 2.5 mg): 4265.3 (34.8) mL/hr
- t1/2, Single Dose (Cycle 1 Day 1) (human, 2.5 mg): 12.03 (7.08, 33.87) hr
- AUC(0-t) (human, 2.5 mg, AUC0-9, Single Dose (Cycle 1 Day 1)): 385 ng·h/mL
- AUC(0-t) (human, 2.5 mg, AUC0-9, Steady State (Cycle 1 Day 17)): 931 ng·h/mL
- AUC(0-inf) [1]: 586 ng·h/mL
- Cmax [1]: 74.5 ng/mL
- Cmax (human, 2.5 mg, Steady State (Cycle 1 Day 17)): 182 ng/mL
- Vd/F [1]: 52.4 L
- Accumulation Ratio, AUC0-9 (human, 5 mg): 1.93
- Accumulation Ratio, Cmax (human, 5 mg): 2.09
- CL/F, Single Dose (Cycle 1 Day 1) (human, 5 mg): 2056.9 (49.5) mL/hr
- AUC(0-t) (human, 5 mg, AUC0-9, Single Dose (Cycle 1 Day 1)): 1100 ng·h/mL
- AUC(0-t) (human, 5 mg, AUC0-9, Steady State (Cycle 1 Day 17)): 2120 ng·h/mL
- AUC(0-inf) [2]: 2430 ng·h/mL
- Cmax [2]: 193 ng/mL
- Cmax (human, 5 mg, Steady State (Cycle 1 Day 17)): 404 ng/mL
- Tmax (human, 5 mg, Tmax, Steady State (Cycle 1 Day 17)): 0.53 h
- Vd/F [2]: 32.7 L
- half-life (human, 5 mg, t1/2, Single Dose (Cycle 1 Day 1)): 11 h
- Accumulation Ratio, AUC0-9 (human, 10 mg): 1.68
- Accumulation Ratio, Cmax (human, 10 mg): 1.59
- CL/F, Single Dose (Cycle 1 Day 1) (human, 10 mg): 1359.2 (35.9) mL/hr
- AUC(0-t) (human, 10 mg, AUC0-9, Single Dose (Cycle 1 Day 1)): 2580 ng·h/mL
- AUC(0-t) (human, 10 mg, AUC0-9, Steady State (Cycle 1 Day 17)): 4330 ng·h/mL
- AUC(0-inf) [3]: 7360 ng·h/mL
- Cmax [3]: 412 ng/mL
- Cmax (human, 10 mg, Steady State (Cycle 1 Day 17)): 657 ng/mL
- Tmax (human, 10 mg, Tmax, Steady State (Cycle 1 Day 17)): 1.05 h
- Vd/F [3]: 27.6 L
- half-life (human, 10 mg, t1/2, Single Dose (Cycle 1 Day 1)): 14.1 h
- AUC0-9, Single Dose (Cycle 1 Day 1) (human, 20 mg): 4134.9 (29.9) ng/ml*hr
- Accumulation Ratio, AUC0-9 (human, 20 mg): 1.82
- Accumulation Ratio, Cmax (human, 20 mg): 1.62
- CL/F, Single Dose (Cycle 1 Day 1) (human, 20 mg): 2550.4 (58.7) mL/hr
- Cmax, Steady State (Cycle 1 Day 17) (human, 20 mg): 1267.6 (19.9) ng/ml
- AUC(0-t) (human, 20 mg, AUC0-9, Steady State (Cycle 1 Day 17)): 7510 ng·h/mL
- AUC(0-inf) [4]: 7840 ng·h/mL
- Cmax [4]: 783 ng/mL
- Tmax (human, 20 mg, Tmax, Single Dose (Cycle 1 Day 1)): 0.53 h
- Vd/F [4]: 31.4 L
- half-life (human, 20 mg, t1/2, Single Dose (Cycle 1 Day 1)): 8.53 h
- Accumulation Ratio, AUC0-9 (human, 40 mg): 1.86
- Accumulation Ratio, Cmax (human, 40 mg): 1.60
- CL/F, Single Dose (Cycle 1 Day 1) (human, 40 mg): 1826.6 (85.8) mL/hr
- t1/2, Single Dose (Cycle 1 Day 1) (human, 40 mg): 11.76 (6.24, 24.37) hr
- AUC(0-t) (human, 40 mg, AUC0-9, Single Dose (Cycle 1 Day 1)): 8950 ng·h/mL
- AUC(0-t) (human, 40 mg, AUC0-9, Steady State (Cycle 1 Day 17)): 18300 ng·h/mL
- AUC(0-inf) [5]: 21900 ng·h/mL
- Cmax [5]: 1750 ng/mL
- Cmax (human, 40 mg, Steady State (Cycle 1 Day 17)): 2940 ng/mL
- Tmax (human, 40 mg, Tmax, Steady State (Cycle 1 Day 17)): 1.5 h
- Vd/F [5]: 31 L
- AUC0-9, Single Dose (Cycle 1 Day 1) (human, 60 mg): 10403.7 (29.2) ng/ml*hr
- CL/F, Single Dose (Cycle 1 Day 1) (human, 60 mg): 1874.7 (55.4) mL/hr
- Geometric mean half-life (human, 60 mg): 13.5 h
- t1/2, Single Dose (Cycle 1 Day 1) (human, 60 mg): 13.50 (7.14, 24.61) hr
- AUC(0-t) (human, 60 mg, AUC0-9, Steady State (Cycle 1 Day 17)): 25200 ng·h/mL
- AUC(0-inf) [6]: 32000 ng·h/mL
- Cmax [6]: 1880 ng/mL
- Cmax (human, 60 mg, Steady State (Cycle 1 Day 17)): 3830 ng/mL
- Vd/F [6]: 36.5 L
- Accumulation Ratio, AUC0-9 (human, 80 mg): 2.07
- Accumulation Ratio, Cmax (human, 80 mg): 1.96
- CL/F, Single Dose (Cycle 1 Day 1) (human, 80 mg): 2786.6 (56.0) mL/hr
- Cmax, Single Dose (Cycle 1 Day 1) (human, 80 mg): 2317.8 (43.0) ng/ml
- AUC(0-t) (human, 80 mg, AUC0-9, Single Dose (Cycle 1 Day 1)): 13200 ng·h/mL
- AUC(0-t) (human, 80 mg, AUC0-9, Steady State (Cycle 1 Day 17)): 25300 ng·h/mL
- AUC(0-inf) [7]: 28700 ng·h/mL
- Cmax (human, 80 mg, Steady State (Cycle 1 Day 17)): 4350 ng/mL
- Tmax (human, 80 mg, Tmax, Single Dose (Cycle 1 Day 1)): 1.98 h
- Tmax (human, 80 mg, Tmax, Steady State (Cycle 1 Day 17)): 1.08 h
- Vd/F [7]: 38.5 L
- half-life (human, 80 mg, t1/2, Single Dose (Cycle 1 Day 1)): 9.58 h
- AUC0-9, Steady State (Cycle 1 Day 17) (human, 120 mg): 36558.4 (32.4) ng/ml*hr
- AUC0-inf, Single Dose (Cycle 1 Day 1) (human, 120 mg): 68952.9 (43.3) ng/ml*hr
- Cmax, Single Dose (Cycle 1 Day 1) (human, 120 mg): 3752.8 (41.1) ng/ml
- Cmax, Steady State (Cycle 1 Day 17) (human, 120 mg): 6059.1 (27.7) ng/ml
- Vz/F, Single Dose (Cycle 1 Day 1) (human, 120 mg): 31373.9 (13.9) mL
- t1/2, Single Dose (Cycle 1 Day 1) (human, 120 mg): 14.29 (9.83, 30.30) hr
- AUC(0-t) (human, 120 mg, AUC0-9, Single Dose (Cycle 1 Day 1)): 21100 ng·h/mL
- AUC(0-t) (human, 120 mg, AUC0-9, Steady State (Cycle 1 Day 17)): 26900 ng·h/mL
- AUC(0-inf) [8]: 52000 ng·h/mL
- Cmax [8]: 3590 ng/mL
- Cmax (human, 120 mg, Steady State (Cycle 1 Day 17)): 4530 ng/mL
- Tmax (human, 120 mg, Tmax, Single Dose (Cycle 1 Day 1)): 1.95 h
- Vd/F [8]: 36.3 L
- half-life (human, 120 mg, t1/2, Single Dose (Cycle 1 Day 1)): 10.9 h
- Accumulation Ratio, AUC0-9 (human, 160 mg): 1.47
- Accumulation Ratio, Cmax (human, 160 mg): 1.27
- CL/F, Single Dose (Cycle 1 Day 1) (human, 160 mg): 1569.1 (44.8) mL/hr
- AUC(0-t) (human, 160 mg, AUC0-9, Single Dose (Cycle 1 Day 1)): 31800 ng·h/mL
- AUC(0-t) (human, 160 mg, AUC0-9, Steady State (Cycle 1 Day 17)): 45300 ng·h/mL
- AUC(0-inf) [9]: 102000 ng·h/mL
- Cmax [9]: 5340 ng/mL
- Cmax (human, 160 mg, Steady State (Cycle 1 Day 17)): 6870 ng/mL
- Vd/F [9]: 34.5 L
- half-life (human, 160 mg, t1/2, Single Dose (Cycle 1 Day 1)): 15.2 h
- half-life (human, Mean terminal half-life): ~13 h
- Tmax (human, Median Tmax): 1 to 2 h
- Tmax (human, BID 2.5 mg, N 4, read-out: Tmax, Steady State (Cycle 1 Day 17)): 0.54 h
- AUC0-9 (human, QD 120 mg, N 8, read-out: AUC0-9, Single Dose (Cycle 1 Day 1)): 21700 ng·h/mL
- Exposure (Cmax and AUC0-inf) versus dose: dose-proportional increase
